Patent publication US11963971B2, “Combination decitabine and cedazuridine solid oral dosage forms” (Otsuka Pharmaceutical Co., Ltd., priority 2020, dated 2024)
Marks after values point to notes of the source that are not given here.

Columns and labels:
MDS and CMML patients = assay: Phase 2 safety: related adverse events Grade ≥3 in ≥5% of patients; format: in vivo, human; settings: Phase 2, Cycle 1 or 2; IV DEC N = 75, ASTX727 N = 78
Protocol: The ASTX727 Phase 2 study was a randomized cross over design of decitabine 20 mg/m^2 IV daily (for 5 days) vs. oral decitabine/cedazuridine once daily (for 5 days) in Cycle 1 with patients crossing over to the other drug in Cycle 2 (See FIG. 3). From Cycle 3 onward, all patients continued on oral decitabine/cedazuridine once daily (for 5 days), each cycle every 28 days, until progression.
Changes in DNA methylation after treatment were expressed as relative change (%), calculated as: 100×([methylation on a given post-treatment day]−[baseline methylation]. Adverse event assessments through physical examinations and laboratory monitoring (haematology, metabolic profile, and liver enzymes) were done before treatment on day 1 of each cycle (weekly for haematology in the first two cycles). While on treatment, patients were assessed for adverse events and clinical response, including haematology, metabolic profile, liver enzymes, directed physical examinations, vital signs, transfusion records, and dosing records. Once off treatment, patients were followed up for survival and transformation to acute myeloid leukemia. Dose reduction or delays were permitted at the investigators' discretion to allow for recovery from drug-related myelosuppression.

[1] = Phase 3 randomized cross over study: 5-day decitabine AUC equivalence, oral ASTX727 vs IV decitabine; format: in vivo; settings: human, plasma, 20 mg/m2; Phase 3 primary analysis, paired population N=123; IV decitabine 20 mg/m^2; read-out: Decitabine 5-day AUC0-24, IV DEC Geo. LSM
Text: The Primary Endpoint PK Analysis Set is used to calculate decitabine 5-day cumulative AUC0-t exposures after administration of the solid dosage form. The following assumptions are used: • 1) Steady state is reached on Day 2 of dosing with the solid dosage form; • 2) Based on steady state achievement on Day 2, decitabine AUC0-t from Day 2 and Day 5 is representative of daily AUC0-t on Days 2 through Day 5 in a putative 5-day dosing with the solid dosage form.
Therefore, to calculate total 5-day oral decitabine AUC0-t exposures using PK data from 3 days sequential PK sampling, Day 1 AUC0-t (first solid dosage form dose) is added to (Day 2 AUC0-t+Day 5 AUC0-t)×2. If AUC0-t on Day 2 is not available, it is replaced by AUC0-t on Day 5; the converse is also true.
If AUC0-t on Day 1 is not available, it is replaced by AUC0-t on Day 5; the converse is also true. Note that t=24 hrs, so AUC0-t is AUC0-24.
Phase 3 was a randomized cross over design where MDS and CMML patients eligible to receive decitabine were randomized to Sequence A where they received ASTX727 in Cycle 1 then IV decitabine in Cycle 2, or Sequence B with the reverse order. All patients received ASTX727 from Cycle 3 onwards to assess long term efficacy and safety. 118 evaluable patients were needed to show AUC equivalence between oral and IV administrations. […]

[2] = ASTX727 Phase 2 randomized cross over dose confirmation: plasma decitabine 5-day AUC, oral vs IV; format: in vivo; settings: human, read-out: Decitabine 5-day AUC0-t, IV Geo. LSM
[3] = ASTX727 Phase 1 dose escalation study: plasma decitabine pharmacokinetics (AUC); format: in vivo, human; settings: for AUC(0-t): human, plasma
Protocol: The ASTX727 Phase 1 study was a dose escalation designed to establish the recommended doses of cedazuridine and decitabine likely to achieve AUC equivalence with standard dose decitabine IV (decitabine 20 mg/m^2 IV). FIG. 1 provides an overview of the study design. In Cycle 1, each patient received a cohort-defined dose of oral decitabine on day −3, a 1-h intravenous infusion of decitabine 20 mg/m^2 on day 1, and cohort-defined doses of oral decitabine plus cedazuridine on days 2-5. In Cycles 2 and beyond, the oral decitabine and cedazuridine were given on days 1-5. The dose of cedazuridine was escalated first and decitabine was escalated once CDA inhibition by cedazuridine approached the maximum effect. Only one drug was escalated per cohort. Fixed doses were given without adjustment for bodyweight or body surface area. Days −3, 1, 2, and 5 for decitabine included a full-day pharmacokinetic analysis. The starting dose was 20 mg for oral decitabine and 40 mg for cedazuridine (a human equivalent dose with approximately 100 times greater safety margin than the no-observed adverse effect level in cynomolgus monkeys). […] Dose-limiting toxicity was defined as a grade 4 hematologic toxicity or grade 3 lasting more than 14 days and unrelated to the underlying disease. […] Dose escalation for patients who previously received a lower dose was allowed at the discretion of the investigator if the patient had tolerated the originally assigned doses.
The pharmacokinetic profile of decitabine was characterized through analysis of plasma treated with EDTA (edetic acid) by validated liquid chromatography-tandem mass spectrometry, with tetrahydrouridine (Santa Cruz Biotechnology, Dallas, TX) for stabilization and with a linear assay range of 0.5-100 ng/mL for decitabine. Serial plasma samples (from before dose administration until 24 h after administration) were collected on days −3, 1, 2, and 5 (also immediately before dose administration on days 3 and 4) during the first cycle. Specifically, pharmacokinetic samples were obtained before dose administration and 0.25 h, 0.5 h, 1.0 h (for IV only 1.083 h), 1.5 h, 2 h, 3 h, 4 h, 6 h, 8 h, and 24 h after the dose.

AUC(0-t) [1]: 865 ng·h/mL | AUC(0-t) ([2]; 20 mg/m^2, Phase 2 FDC tablet stage, N=24, 20 mg/m^2 IV infusion (1 h) of decitabine): 745 ng·h/mL | AUC(0-t) ([2]; 20 mg/m^2, Phase 2 capsule stage, N=40, 20 mg/m^2 IV infusion (1 h) of decitabine): 803 ng·h/mL | 5-days Total AUC0-t, IV (N = 41), geometric mean ([3]; IV decitabine 20 mg/m^2, total IV population of all cohorts (N = 41)): 821^d h · ng/ml | AUC(0-t) ([3]; iv, 20 mg/m2, Cohort 1, N=5 (extreme outlier excluded), IV decitabine 20 mg/m^2, day 1, read-out: AUC0-t by day, IV D1, Geometric Mean (gCV %)): 138 ng·h/mL | AUC(0-t) ([3]; iv, 20 mg/m2, Cohort 2, N=6, IV decitabine 20 mg/m^2, day 1, read-out: AUC0-t by day, IV D1, Geometric Mean (gCV %)): 170 ng·h/mL | AUC(0-t) ([3]; iv, 20 mg/m2, Cohort 3, N=6, IV decitabine 20 mg/m^2, day 1, read-out: AUC0-t by day, IV D1, Geometric Mean (gCV %)): 192 ng·h/mL | AUC(0-t) ([3]; iv, 20 mg/m2, Cohort 4, N=6, IV decitabine 20 mg/m^2, day 1, read-out: AUC0-t by day, IV D1, Geometric Mean (gCV %)): 153 ng·h/mL | AUC(0-t) ([3]; iv, 20 mg/m2, Cohort 5, IV decitabine 20 mg/m^2, day 1, IV data from 18 patients (one extreme outlier excluded), read-out: AUC0-t by day, IV D1, Geometric Mean (gCV %)): 166 ng·h/mL | AUC(0-t) ([3]; iv, 20 mg/m^2, Cohort 1, N=6, IV decitabine 20 mg/m^2 1-h infusion, day 1, read-out: AUC0-t by day, IV D1, Geometric Mean (gCV %)): 159 ng·h/mL | AUC(0-t) ([3]; po, 20 mg, Cohort 1, N=5 (extreme outlier excluded), oral DEC 20 mg alone, day −3, read-out: AUC0-t by day, D −3 (DEC alone), Geometric Mean (gCV %)): 7.9 ng·h/mL | AUC(0-t) ([3]; po, 20 mg, Cohort 1, N=6, oral DEC 20 mg alone, day −3, plasma decitabine, read-out: AUC0-t by day, D −3 (DEC alone), Geometric Mean (gCV %)): 10.7 ng·h/mL | AUC(0-t) ([3]; po, 20 mg, Cohort 2, N=6, oral DEC 20 mg alone, day −3, read-out: AUC0-t by day, D −3 (DEC alone), Geometric Mean (gCV %)): 7.49 ng·h/mL | AUC(0-t) ([3]; po, 20 mg, Cohort 3, N=6, oral DEC 20 mg alone, day −3, read-out: AUC0-t by day, D −3 (DEC alone), Geometric Mean (gCV %)): 7.9 ng·h/mL | AUC(0-t) ([3]; po, 30 mg, Cohort 5, N=19, oral DEC 30 mg alone, day −3, read-out: AUC0-t by day, D −3 (DEC alone), Geometric Mean (gCV %)): 15.3 ng·h/mL | AUC(0-t) ([3]; po, 40 mg, Cohort 4, N=6, oral DEC 40 mg alone, day −3, read-out: AUC0-t by day, D −3 (DEC alone), Geometric Mean (gCV %)): 29.8 ng·h/mL
Structure (SMILES): Nc1ncn([C@H]2C[C@H](O)[C@@H](CO)O2)c(=O)n1 [IV DEC, 5-aza-2′-deoxycytidine]
Anemia, related AE Grade ≥3 (MDS and CMML patients): 4 (5.3%) n (%) | Any Grade ≥3 Related AEs (MDS and CMML patients): 24 (32%) n (%) | Febrile Neutropenia, related AE Grade ≥3 (MDS and CMML patients): 4 (5.3%) n (%) | Leukopenia, related AE Grade ≥3 (MDS and CMML patients): 6 (8.0%) n (%) | Neutropenia, related AE Grade ≥3 (MDS and CMML patients): 16 (21.3%) n (%) | Thrombocytopenia, related AE Grade ≥3 (MDS and CMML patients): 11 (14.7%) n (%)
